Laboratory results taken from patent US5935952A, “Quinolone- or naphthylidone-carboxylic acid derivates or their salts” (Toyama Chemical Co., LTD., priority 1994, dated 1999).
In brackets after ≈: the same amount, converted by molar mass. Like-named read-outs stand apart in the source and are kept apart here.

Columns and labels:
Assay type in all cases: cell-based
[1] = tested on: E. coli NIHJ JC-2; assay: Antibacterial activity (MIC, agar dilution, standard method of Japan Society of Chemotherapy) against E. coli NIHJ JC-2; conditions: Escherichia coli
Source text: (§1) According to the standard method of Japan Society of Chemotherapy [CHEMOTHERAPY, vol.

[2] = tested on: S. aureus FDA 209P; assay: Antibacterial activity (MIC, agar dilution, standard method of Japan Society of Chemotherapy) against S. aureus FDA 209P; conditions: Staphylococcus aureus, FDA209P
Source text: as §1

[3] = tested on: S. aureus F-137; assay: Antibacterial activity (MIC, agar dilution, standard method of Japan Society of Chemotherapy) against S. aureus F-137*; conditions: Staphylococcus aureus, F137; S. aureus F-137, β-lactamase-producing bacteria; Mueller Hinton agar, 37° C., 20 hours, 10^6 cells/plate
Source text: as §1
*: β-lactamase-producing bacteria

[4] = tested on: S. aureus F-597; assay: Antibacterial activity (MIC, agar dilution, standard method of Japan Society of Chemotherapy) against S. aureus F-597**; conditions: Staphylococcus aureus; S. aureus F-597, MRSA (methicillin-resistant S. aureus); Mueller Hinton agar, 37° C., 20 hours, 10^6 cells/plate
Source text: as §1
**: MRSA (methicillin-resistant S. aureus)

Row | SMILES | MIC ([1]; NIHJJC2, 20 h) [µg/mL] | MIC ([2]; 20 h) [µg/mL] | MIC ([1]; NIHJJC2, E. coli NIHJ JC-2, Mueller Hinton agar, 37° C., 20 hours, 10^6 cells/plate, read-out: MIC) [µg/mL] | MIC [3] [µg/mL] | MIC [4] [µg/mL] | MIC ([2]; S. aureus FDA 209P, Mueller Hinton agar, 37° C., 20 hours, 10^6 cells/plate, read-out: MIC) [µg/mL]
1 | O=C(O)c1cn(C2CC2)c2cc(N3CCNCC3)c(F)cc2c1=O [Compound B, 1-cyclopropyl-6-fluoro-7-(1-piperazinyl)-1,4-dihydro-4-oxoquinoline-3-carboxylic acid, reference compound] | ≤ 0.05 | 0.2 (≈ 0.604 µM) | – | – | – | –
2 | Cc1c(-c2ccc3c(c2)CNC3)c(F)cc2c(=O)c(C(=O)O)cn(C3CC3)c12 [Compound A, 1-cyclopropyl-6-fluoro-7-(isoindolin-5-yl)-8-methyl-1,4-dihydro-4-oxoquinoline-3-carboxylic acid] | – | – | ≤ 0.05 | ≤ 0.05 | ≤ 0.05 | ≤ 0.05
